Measurements as given in PubChem BioAssay AID328 (DTP/NCI, 2004).
Several values for one entry are separate records, joined by “and”; a condition that tells them apart may be missing. Identical values can stand only once. Toxic doses and inconclusive results are not listed.

System: BDF1 mice, P388 leukemia ip, median survival T/C
Experiment: NCI In Vivo Anticancer Drug Screen. Data for tumor model P388 Leukemia (intraperitoneal) in B6D2F1 (BDF1) mice
Conditions: endpoint: median survival time, higher = longer survival
Outline: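 Read-out is survival of treated animals expressed relative to the vehicle group, as a T/C ratio.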

[1] = dose: 100.0 mg/kg/injection, schedule: Q04DX003 (ip), vehicle: Klucel (hydroxypropylcellulose) (HPC)

Question: `CC(Cl)CN(CC(C)Cl)c1ccc(S(=O)(=O)Nc2ncccn2)cc1` (stereo not given) was tested. Which T/C (dose: 12.0 mg/kg/injection, schedule: Q01DX009 (ip), vehicle: gum acacia) did it give?
Answer: 152 % of control

Question: And the T/C (dose: 26.0 mg/kg/injection, schedule: Q01DX009 (ip), vehicle: gum acacia)?
Answer: 166 % of control and 172 % of control

Question: And the T/C (dose: 40.0 mg/kg/injection, schedule: Q01DX009 (ip), vehicle: gum acacia)?
Answer: 175 % of control

Question: What about the T/C (dose: 50.0 mg/kg/injection, schedule: Q01DX009 (ip), vehicle: gum acacia) of the same molecule?
Answer: 190 % of control

Question: What about the T/C (dose: 50.0 mg/kg/injection, schedule: Q04DX003 (ip), vehicle: gum acacia) of the same molecule?
Answer: 100 % of control

Question: And the T/C (dose: 60.0 mg/kg/injection, schedule: Q01DX009 (ip), vehicle: gum acacia)?
Answer: 183 % of control

Question: And the T/C (dose: 90.0 mg/kg/injection, schedule: Q01DX009 (ip), vehicle: gum acacia)?
Answer: 183 % of control and 215 % of control

Question: And the T/C (dose: 100.0 mg/kg/injection, schedule: Q01DX009 (ip), vehicle: gum acacia)?
Answer: 272 % of control

Question: What about the T/C (dose: 100.0 mg/kg/injection, schedule: Q04DX003 (ip), vehicle: gum acacia) of the same molecule?
Answer: 100 % of control

Question: What about the T/C (dose: 133.0 mg/kg/injection, schedule: Q01DX009 (ip), vehicle: gum acacia) of the same molecule?
Answer: 230 % of control

Question: And the T/C (dose: 200.0 mg/kg/injection, schedule: Q04DX003 (ip), vehicle: gum acacia)?
Answer: 105 % of control

Question: How did the T/C (dose: 50.0 mg/kg/injection, schedule: Q04DX003 (ip), vehicle: saline sonified) turn out when `Cc1ccc[nH]c1=O` was run?
Answer: 91 % of control

Question: What about the T/C (dose: 100.0 mg/kg/injection, schedule: Q04DX003 (ip), vehicle: saline sonified) of the same molecule?
Answer: 91 % of control

Question: And the T/C (dose: 200.0 mg/kg/injection, schedule: Q04DX003 (ip), vehicle: saline sonified)?
Answer: 100 % of control

Question: With `COc1ccc(NC(=O)Nc2ccccc2C(F)(F)F)cc1` as the molecule, how does the T/C (dose: 100.0 mg/kg/injection, schedule: Q01DX001 (ip), vehicle: saline with Tween-80) read?
Answer: 95 % of control

Question: And the T/C (dose: 200.0 mg/kg/injection, schedule: Q01DX001 (ip), vehicle: saline with Tween-80)?
Answer: 100 % of control

Question: What about the T/C (dose: 400.0 mg/kg/injection, schedule: Q01DX001 (ip), vehicle: saline with Tween-80) of the same molecule?
Answer: 90 % of control

Question: Which T/C (dose: 50.0 mg/kg/injection, schedule: Q01DX009 (ip), vehicle: saline) does the source give for `Cc1nn(C2CC(O)C(O)C(CO)O2)c(=O)[nH]c1=O` (stereo not given) here?
Answer: 98 % of control

Question: And the T/C (dose: 100.0 mg/kg/injection, schedule: Q01DX009 (ip), vehicle: saline)?
Answer: 99 % of control

Question: What about the T/C (dose: 200.0 mg/kg/injection, schedule: Q01DX009 (ip), vehicle: saline) of the same molecule?
Answer: 97 % of control

Question: And the T/C (dose: 400.0 mg/kg/injection, schedule: Q01DX009 (ip), vehicle: saline)?
Answer: 106 % of control

Question: What does the source list for `COc1ccc(OC)c(C(=O)CC(O)(C(F)(F)F)C(F)(F)F)c1`?
Answer: T/C (dose: 100.0 mg/kg/injection, schedule: Q01DX009 (ip), vehicle: saline with Tween-80): 95 % of control; T/C (dose: 100.0 mg/kg/injection, schedule: Q04DX003 (ip), vehicle: saline with Tween-80): 120 % of control; T/C (dose: 200.0 mg/kg/injection, schedule: Q01DX009 (ip), vehicle: saline with Tween-80): 108 % of control; T/C (dose: 200.0 mg/kg/injection, schedule: Q04DX003 (ip), vehicle: saline with Tween-80): 110 % of control; T/C (dose: 400.0 mg/kg/injection, schedule: Q01DX009 (ip), vehicle: saline with Tween-80): 104 % of control; T/C (dose: 400.0 mg/kg/injection, schedule: Q04DX003 (ip), vehicle: saline with Tween-80): 100 % of control

Question: `C=C1C(=O)OC2C=C(C)C3C(O)CC(C)(O)C3CC12` (stereo not given) was tested. Which T/C (dose: 100.0 mg/kg/injection, schedule: Q01DX009 (ip), vehicle: Klucel (hydroxypropylcellulose) (HPC)) did it give?
Answer: 114 % of control

Question: What about the T/C (dose: 200.0 mg/kg/injection, schedule: Q01DX009 (ip), vehicle: Klucel (hydroxypropylcellulose) (HPC)) of the same molecule?
Answer: 102 % of control

Question: For `O=[N+]([O-])c1ccc(/C=C/c2ccccn2)s1`, which T/C [1] is on record?
Answer: 100 % of control

Question: And the T/C (dose: 200.0 mg/kg/injection, schedule: Q04DX003 (ip), vehicle: Klucel (hydroxypropylcellulose) (HPC))?
Answer: 100 % of control

Question: And the T/C (dose: 400.0 mg/kg/injection, schedule: Q04DX003 (ip), vehicle: Klucel (hydroxypropylcellulose) (HPC))?
Answer: 100 % of control

Question: Which results are given for `COC1=C(C)C(=O)C2=C(C1=O)C1C3CC4=C(C(=O)C(OC)=C(C)C4=O)C(CNC(=O)C(C)=O)N3C(C#N)C(C2)N1C` (stereo not given)?
Answer: T/C (dose: 0.31 mg/kg/injection, schedule: Q01DX009 (ip), vehicle: Klucel (hydroxypropylcellulose) (HPC)): 151 % of control; T/C (dose: 0.62 mg/kg/injection, schedule: Q01DX009 (ip), vehicle: Klucel (hydroxypropylcellulose) (HPC)): 183 % of control; T/C (dose: 1.25 mg/kg/injection, schedule: Q01DX009 (ip), vehicle: Klucel (hydroxypropylcellulose) (HPC)): 159 % of control

Question: `O=NN(CCBr)C(=O)Nc1ccccc1` was tested. Which T/C (dose: 4.0 mg/kg/injection, schedule: Q04DX003 (ip), vehicle: Klucel (hydroxypropylcellulose) (HPC)) did it give?
Answer: 107 % of control

Question: And the T/C (dose: 6.5 mg/kg/injection, schedule: Q04DX003 (ip), vehicle: Klucel (hydroxypropylcellulose) (HPC))?
Answer: 119 % of control

Question: And the T/C (dose: 11.0 mg/kg/injection, schedule: Q01DX009 (ip), vehicle: Klucel (hydroxypropylcellulose) (HPC))?
Answer: 150 % of control and 158 % of control

Question: What about the T/C (dose: 15.0 mg/kg/injection, schedule: Q04DX003 (ip), vehicle: Klucel (hydroxypropylcellulose) (HPC)) of the same molecule?
Answer: 162 % of control

Question: What about the T/C (dose: 16.5 mg/kg/injection, schedule: Q01DX009 (ip), vehicle: Klucel (hydroxypropylcellulose) (HPC)) of the same molecule?
Answer: 166 % of control

Question: And the T/C (dose: 16.5 mg/kg/injection, schedule: Q01DX009 (ip), vehicle: saline with Tween-80)?
Answer: 185 % of control

Question: And the T/C (dose: 25.0 mg/kg/injection, schedule: Q01DX009 (ip), vehicle: Klucel (hydroxypropylcellulose) (HPC))?
Answer: 195 % of control and 215 % of control

Question: What about the T/C (dose: 25.0 mg/kg/injection, schedule: Q01DX009 (ip), vehicle: saline with Tween-80) of the same molecule?
Answer: 200 % of control

Question: And the T/C (dose: 29.0 mg/kg/injection, schedule: Q04DX003 (ip), vehicle: Klucel (hydroxypropylcellulose) (HPC))?
Answer: 154 % of control and 168 % of control

Question: What about the T/C (dose: 37.5 mg/kg/injection, schedule: Q01DX009 (ip), vehicle: Klucel (hydroxypropylcellulose) (HPC)) of the same molecule?
Answer: 220 % of control

Question: And the T/C (dose: 37.5 mg/kg/injection, schedule: Q01DX009 (ip), vehicle: saline with Tween-80)?
Answer: 210 % of control

Question: And the T/C (dose: 44.0 mg/kg/injection, schedule: Q04DX003 (ip), vehicle: Klucel (hydroxypropylcellulose) (HPC))?
Answer: 175 % of control and 181 % of control

Question: What about the T/C (dose: 67.0 mg/kg/injection, schedule: Q04DX003 (ip), vehicle: Klucel (hydroxypropylcellulose) (HPC)) of the same molecule?
Answer: 167 % of control and 185 % of control and 204 % of control

Question: And the T/C [1]?
Answer: 121 % of control and 211 % of control

Question: And the T/C (dose: 150.0 mg/kg/injection, schedule: Q04DX003 (ip), vehicle: Klucel (hydroxypropylcellulose) (HPC))?
Answer: 175 % of control
